Reference: ChEMBL document CHEMBL4190340, “Studies on the cytotoxicity and anticancer performance of heterocyclic hypervalent organobismuth(III) compounds” (Eur J Med Chem, 2017)
Active and inactive are the calls of the source. No cut-off for these calls is given here.

Columns and labels:
A549 [1] = assay: Induction of apoptosis in human A549 cells assessed as necrotic cells at 10 uM after 48 hrs by Annexin V-FITC/propidium iodide staining based flow cytometric analysis (reference value: 1.21%); assay type: functional, cell-based
A549 [2] = assay: Upregulation of Bax protein level in human A549 cells at 3 to 10 uM after 24 hrs by Western blot analysis; assay type: functional, cell-based
A549 [3] = assay: Induction of apoptosis in human A549 cells assessed as membrane blebbing at 10 uM after 48 hrs by Annexin V-FITC/propidium iodide staining based laser scanning confocal microscopic analysis; assay type: functional, cell-based
A549 [4] = assay: Induction of apoptosis in human A549 cells after 48 hrs by Annexin V-FITC/propidium iodide staining based flow cytometric analysis; assay type: functional, cell-based
A549 [5] = assay: Downregulation of Bcl-2 mRNA expression in human A549 cells at 10 uM after 24 hrs by qRT-PCR analysis; assay type: functional, cell-based
A549 [6] = assay: Induction of apoptosis in human A549 cells assessed as late apoptotic cells at 10 uM after 48 hrs by Annexin V-FITC/propidium iodide staining based flow cytometric analysis (reference value: 1.73%); assay type: functional, cell-based
A549 [7] = assay: Induction of apoptosis in human A549 cells assessed as necrotic cells at 3 uM after 48 hrs by Annexin V-FITC/propidium iodide staining based flow cytometric analysis (reference value: 1.21%); assay type: functional, cell-based
A549 [8] = assay: Induction of apoptosis in human A549 cells assessed as reduction in pro caspase 3 level at 10 uM after 24 hrs by Western blot analysis; assay type: functional, cell-based
A549 [9] = assay: Induction of apoptosis in human A549 cells assessed as late apoptotic cells by Annexin V-FITC/propidium iodide staining based flow cytometric analysis (reference value: 1.66%); assay type: functional, cell-based
A549 [10] = assay: Induction of apoptosis in human A549 cells assessed as late apoptotic cells in presence of z-VAD-fmk by Annexin V-FITC/propidium iodide staining based flow cytometric analysis (reference value: 1.66%); assay type: functional, cell-based
A549 [11] = assay: Induction of apoptosis in human A549 cells assessed as early apoptotic cells at 10 uM after 48 hrs by Annexin V-FITC/propidium iodide staining based flow cytometric analysis (reference value: 2.89%); assay type: functional, cell-based
A549 [12] = assay: Induction of apoptosis in human A549 cells assessed as early apoptotic cells by Annexin V-FITC/propidium iodide staining based flow cytometric analysis (reference value: 1.43%); assay type: functional, cell-based
A549 [13] = assay: Cytotoxicity against human A549 cells assessed as reduction in cell viability after 48 hrs by CCK8 assay; assay type: functional, cell-based
A549 [14] = assay: Induction of apoptosis in human A549 cells assessed as necrotic cells by Annexin V-FITC/propidium iodide staining based flow cytometric analysis (reference value: 0.96%); assay type: functional, cell-based
A549 [15] = assay: Induction of apoptosis in human A549 cells assessed as connection disappearance at 10 uM after 48 hrs by Annexin V-FITC/propidium iodide staining based laser scanning confocal microscopic analysis; assay type: functional, cell-based
A549 [16] = assay: Induction of apoptosis in human A549 cells assessed as late apoptotic cells at 3 uM after 48 hrs by Annexin V-FITC/propidium iodide staining based flow cytometric analysis (reference value: 1.73%); assay type: functional, cell-based
A549 [17] = assay: Downregulation of Bcl-2 protein level in human A549 cells at 3 to 10 uM after 24 hrs by Western blot analysis; assay type: functional, cell-based
Homo sapiens = species: Homo sapiens; assay: Cytotoxicity against human […] cells assessed as reduction in cell viability after 48 hrs by CCK8 assay; assay type: functional, cell-based
A549 [18] = assay: Induction of apoptosis in human A549 cells assessed as nuclear enrichment at 10 uM after 48 hrs by Annexin V-FITC/propidium iodide staining based laser scanning confocal microscopic analysis; assay type: functional, cell-based
SW480 = assay: Cytotoxicity against human SW480 cells assessed as reduction in cell viability after 48 hrs by CCK8 assay; assay type: functional, cell-based
SGC-7901 = assay: Cytotoxicity against human SGC7901 cells assessed as reduction in cell viability after 48 hrs by CCK8 assay; assay type: functional, cell-based
A549 [19] = assay: Upregulation of Bax mRNA expression in human A549 cells at 10 uM after 24 hrs by qRT-PCR analysis; assay type: functional, cell-based
A549 [20] = assay: Induction of apoptosis in human A549 cells assessed as early apoptotic cells in presence of z-VAD-fmk by Annexin V-FITC/propidium iodide staining based flow cytometric analysis (reference value: 1.43%); assay type: functional, cell-based
A549 [21] = assay: Induction of apoptosis in human A549 cells assessed as cell shrinkage at 10 uM after 48 hrs by Annexin V-FITC/propidium iodide staining based laser scanning confocal microscopic analysis; assay type: functional
A549 [22] = assay: Induction of apoptosis in human A549 cells assessed as necrotic cells in presence of z-VAD-fmk by Annexin V-FITC/propidium iodide staining based flow cytometric analysis (reference value: 0.96%); assay type: functional, cell-based
A549 [23] = assay: Induction of apoptosis in human A549 cells assessed as early apoptotic cells at 3 uM after 48 hrs by Annexin V-FITC/propidium iodide staining based flow cytometric analysis (reference value: 2.89%); assay type: functional, cell-based

5H-dibenzo[c,f][1,5]oxabismocin-12(7H)-yl nitrate
Activity (A549 [1]): 6.68% | Activity (A549 [2]): Active | Activity (A549 [3]): Active | Activity (A549 [4]): Dose-dependent effect | Activity (A549 [5]): Active | Activity (A549 [6]): 4.24% | Activity (A549 [7]): 0.617% | Activity (A549 [8]): Active | Activity (A549 [9]): 10.2% | Activity (A549 [10]): 5.26% | Activity (A549 [11]): 17.4% | Activity (A549 [12]): 18.6% | Activity (A549 [13]): Dose-dependent effect | Activity (A549 [14]): 2.24% | Activity (A549 [15]): Active | Activity (A549 [16]): 4.16% | Activity (A549 [17]): Active | Activity (Homo sapiens): Dose-dependent effect | Activity (A549 [18]): Active | Activity (SW480): Dose-dependent effect | Activity (SGC-7901): Dose-dependent effect | Activity (A549 [19]): Active | Activity (A549 [20]): 3.19% | Activity (A549 [21]): Active | Activity (A549 [22]): 2.66% | Activity (A549 [23]): 5.18%
